Results published in patent US10017497B2, “Pyrrolidine GPR40 modulators for the treatment of diseases such as diabetes” (BRISTOL-MYERS SQUIBB COMPANY, priority 2014, dated 2018).

Experiments:
[1] = molecular target: T1, hGPR40 (Homo sapiens, UniProt O14842); test: FDSS-based intracellular calcium assay (hGPR40 EC50); format: cell-based; parameters: 3xFLAG; expressed in transfected cells; details: cells expressing GPR40, intracellular Ca2+ response, FDSS reader
Method: FDSS-Based Intracellular Calcium Assay
Cell lines expressing GPR40 are generated using the pDEST-3×FLAG gene expression system and are cultured in culture medium comprising the following components: F12 (Gibco #11765), 10% lipid deprived fetal bovine serum, 250 μg/mL zeocin and 500 μg/mL G418. To conduct the fluorescent imaging plate reader (FLIPR)-based calcium flux assay to measure intracellular Ca^2+ response, cells expressing GPR40 are plated on 384 well plates (BD Biocoat #356697) at a density of 20,000 cells/20 μL medium per well in phenol red and serum-free DMEM (Gibco #21063-029) and incubated overnight. Using BD kit #s 80500-310 or -301, the cells are incubated with 20 μL per well of Hank's buffered salt solution with 1.7 mM probenecid and Fluo-3 at 37° C. for 30 min. Compounds are dissolved in DMSO and diluted to desired concentrations with assay buffer and added to the cells as 3× solution (20 μL per well). Run fluorescence/luminescence reader FDSS (Hamamatsu) to read intracellular Ca^2+ response.

[2] = molecular target: T1, hGPR40; test: GPR40 IP-One HTRF assay in HEK293/GPR40 inducible cell lines (hGPR40 IP1 EC50); format: cell-based; parameters: expressed in transfected cells; details: HEK293 cells with tetracycline-inducible human GPR40, IP-One HTRF
Method: GPR40 IP-One HTRF Assays in HEK293/GPR40 Inducible Cell Lines
Human, mouse and rat GPR40-mediated intracellular IP-One HTRF assays were established using human embryonic kidney HEK293 cells stably transfected with a tetracycline-inducible human, mouse or rat GPR40 receptor. Cells were routinely cultured in growth medium containing DMEM (Gibco Cat. #12430-047), 10% qualified FBS (Sigma, Cat. #F2442), 200 μg/mL hygromycin (Invitrogen, Cat. #16087-010) and 1.5 μg/mL blasticidin (Invitrogen, Cat. #R210-01). About 12-15 million cells were passed into a T175 tissue culture flask (BD Falcon 353112) with growth medium and incubated for 16-18 hours (overnight) at 37° C. with 5% CO2. The next day, assay medium was exchanged with growth medium containing 1000 ng/mL of tetracycline (Fluka Analytical, Cat. #87128) to induce GPR40 expression for 18-24 hours at 37° C. incubator with 5% CO2. After induction, the cells were washed with PBS (Gibco, Cat. #14190-036) and detached with Cell Stripper (Cellgro, Cat. #25-056-CL). 10-20 mL growth medium were added to the flask and cells were collected in 50 mL tubes (Falcon, Cat. #352098) and spun at 1000 RPM for 5 minutes. Culture medium was aspirated and the cells were resuspended in 10 mL of 1× IP-One Stimulation Buffer from the Cisbio IP-One kit (Cisbio, Cat. #62IPAPEJ). The cells were diluted to 1.4×10^6 cells/mL in Stimulation Buffer.
Test compounds were 3-fold, 11-point serially diluted in DMSO in a REMP assay plate (Matrix Cat. #4307) by Biocel (Agilent). The compounds were transferred into an Echo plate (Labcyte, Cat. #LP-0200) and 20 nL of diluted compounds were transferred to an assay plate (proxi-plate from Perkin Elmer, Cat. #6008289) by Echo acoustic nano dispenser (Labcyte, model ECHO550). 14 μL of the diluted cells were then added to the assay plate by Thermo (SN 836 330) Combi Drop and incubated at room temperature for 45 minutes. Then 3 μL of IP1 coupled to dye D2 from the Cisbio IP-One kit were added to the assay plate followed by 3 μL of Lumi4-Tb cryptate K from the kit. The plate was further incubated at room for 1 hour before reading on the Envision (Perkin Elmer Mode12101) with an HTRF protocol. Activation data for the test compound over a range of concentrations was plotted as percentage activation of the test compound (100%=maximum response). After correcting for background [(sample read-mean of low control)/(mean of high control-mean of low control)](low control is DMSO without any compound), EC50 values were determined. […] The maximal Y value observed (% Ymax) was calculated relative to a BMS standard reference compound at a final concentration of 0.625 μM.

T1 sequence (O14842 whole entry): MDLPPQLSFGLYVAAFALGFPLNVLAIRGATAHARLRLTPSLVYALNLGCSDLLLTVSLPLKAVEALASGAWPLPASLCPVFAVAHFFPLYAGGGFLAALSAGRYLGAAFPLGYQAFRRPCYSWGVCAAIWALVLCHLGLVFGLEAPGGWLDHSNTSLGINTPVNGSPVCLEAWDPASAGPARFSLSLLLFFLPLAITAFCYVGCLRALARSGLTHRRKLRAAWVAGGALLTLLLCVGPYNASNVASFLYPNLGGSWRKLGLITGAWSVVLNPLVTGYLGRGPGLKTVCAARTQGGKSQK

Structure (SMILES)	EC50 [1] [nM]	EC50 [2] [nM]
COc1cc(N2CC[C@@H](Oc3cnc(N4C[C@H](C(F)(F)F)C[C@H]4CC(=O)O)cn3)[C@H](C)C2)c(Cl)cn1 [Example 8, 2-((2S,4R)-1-(5-((3R,4R)-1-(5-Chloro-2-methoxypyridin-4-yl)-3-methylpiperidin-4-yloxy)pyrazin-2-yl)-4-(trifluoromethyl)pyrrolidin-2-yl)acetic acid]	955	
COc1cc(N2CC[C@@H](Oc3cnc(N4C[C@H](C(F)(F)F)C[C@@H]4CC(=O)O)cn3)[C@H](C)C2)c(Cl)cn1 [Example 9, 2-((2R,4R)-1-(5-((3R,4R)-1-(5-Chloro-2-methoxypyridin-4-yl)-3-methylpiperidin-4-yloxy)pyrazin-2-yl)-4-(trifluoromethyl)pyrrolidin-2-yl)acetic acid]	84	
COCCCO[C@H]1CN(c2cnc(O[C@@H]3CCN(c4cc(OC)ncc4Cl)C[C@H]3C)cn2)[C@@H](CC(=O)O)[C@@H]1C [Example 2, 2-((2S,3S,4R)-1-(5-((3R,4R)-1-(5-Chloro-2-methoxypyridin-4-yl)-3-methylpiperidin-4-yloxy)pyrazin-2-yl)-4-(3-methoxypropoxy)-3-methylpyrrolidin-2-yl)acetic acid]	43	4
CCOc1ccc(F)c(N2CC[C@@H](Oc3cnc(N4C[C@H](OC)[C@@H](C)[C@@H]4CC(=O)O)cn3)[C@H](C)C2)c1 [Example 3, 2-((2S,3S,4R)-1-(5-((3R,4R)-1-(5-Ethoxy-2-fluorophenyl)-3-methylpiperidin-4-yloxy)pyrazin-2-yl)-4-methoxy-3-methylpyrrolidin-2-yl)acetic acid]	42	21
CCOc1ccc(F)c(N2CC[C@@H](Oc3cnc(N4CC(OCCCOC)C(C)C4CC(=O)O)cn3)[C@H](C)C2)c1 (stereo partly drawn) [Example 5, 2-(1-(5-(((3R,4R)-1-(5-Ethoxy-2-fluorophenyl)-3-methylpiperidin-4-yl)oxy)pyrazin-2-yl)-4-(3-methoxypropoxy)-3-methylpyrrolidin-2-yl)acetic acid]	837	
COc1cc(N2CC[C@@H](Oc3cnc(N4C[C@H](OC)C[C@H]4CC(=O)O)cn3)[C@H](C)C2)c(Cl)cn1 [Example 7, 2-((2S,4R)-1-(5-((3R,4R)-1-(5-Chloro-2-methoxypyridin-4-yl)-3-methylpiperidin-4-yloxy)pyrazin-2-yl)-4-methoxypyrrolidin-2-yl)acetic acid]	3230	
CCOc1ccc(F)c(N2CC[C@@H](Oc3cnc(N4C[C@H](OCCCOC)[C@@H](C)[C@@H]4CC(=O)O)cn3)[C@H](C)C2)c1 [Example 4, 2-((2S,3S,4R)-1-(5-((3R,4R)-1-(5-Ethoxy-2-fluorophenyl)-3-methylpiperidin-4-yloxy)pyrazin-2-yl)-4-(3-methoxypropoxy)-3-methylpyrrolidin-2-yl)acetic acid]	45	
COc1cc(N2CC[C@@H](Oc3cnc(N4C[C@H](OC)C[C@@H]4CC(=O)O)cn3)[C@H](C)C2)c(Cl)cn1 [Example 6, 2-((2R,4R)-1-(5-((3R,4R)-1-(5-Chloro-2-methoxypyridin-4-yl)-3-methylpiperidin-4-yloxy)pyrazin-2-yl)-4-methoxypyrrolidin-2-yl)acetic acid]	150	44
COc1cc(N2CC[C@@H](Oc3cnc(N4C[C@H](OC)[C@@H](C)[C@@H]4CC(=O)O)cn3)[C@H](C)C2)c(Cl)cn1 [Example 1, 2-((2S,3S,4R)-1-(5-((3R,4R)-1-(5-Chloro-2-methoxypyridin-4-yl)-3-methylpiperidin-4-yloxy)pyrazin-2-yl)-4-methoxy-3-methylpyrrolidin-2-yl)acetic acid]	72	14
